From patent publication US12590097B2 (priority 2020, dated 2026)

Experiments:
[1] = in vitro; format: in vitro ADME; details: human plasma containing 5 mM MgCl2, 37° C., LC-MS/MS; read-out: T1/2 (h) Plasma (converted)
Procedure: (§1) To 1 mL of human plasma containing 5 mM MgCl2 was added 2 μL of a solution of 50 mM compound to be tested in DMSO, and the mixture was incubated at 37° C. 100 μL of sample was taken at different time points, into which 200 μL of methanol was added, and the mixture was centrifuged at 14000 rpm at 4° C. for 30 min. 100 μL of supernatant was taken, into which 100 μL of methanol was added, and the mixture was frozen at −20° C. for later use.
(§2) The content of the compound to be tested in plasma or liver microsome was determined by LC-MS/MS, and the half-life was calculated. Instruments: Prominence 20 A liquid chromatograph from Shimadzu, API 4000 Q-TRAP mass spectrometer from Applied Biosystems; mass spectrometry conditions: ESI negative ion detection; chromatographic column: Diamonsil C18 (100×4.6 mm, 5 μm) chromatographic column; column temperature: 40° C.; flow rate: 0.5 mL/min. Mobile phase A: methanol; mobile phase B: 5% aqueous methanol solution (containing 2 mM ammonium formate); flow rate: 0.5 mL/min; gradient elution as shown in the following table: […]

[2] = Evaluation of metabolic stability in human liver microsome (human liver S9 components); format: in vitro ADME; details: liver S9 components (headed liver microsome); human liver S9 components 4 mg/mL, pH 7.4, 37° C., LC-MS/MS; read-out: T1/2 (h) Liver microsome (converted)
Procedure: as §1, with “buffer” for “human plasma”, “MgCl2 and 50 mM K2HPO4 (pH 7.4)” for “MgCl2”, “DMSO, then human liver S9 components were added to reach 4 mg/mL,” for “DMSO,”, “300” for “200”, “rpm for 30 min” for “rpm”, “C.” for “C. for 30 min.”
as §2

[3] = Pharmacokinetic evaluation in beagle dogs; format: in vivo; details: for Cmax: male, dog, po, plasma, intragastric, II-1 5 mg/kg, II-6 5.13 mg/kg, I-5-B 5.27 mg/kg, read-out: Cmax(ng/ml) Prodrug prototype
Procedure: Male beagle dogs (7-8 months old, weighing 7-10 kg) were randomly divided into groups (2 beagle dogs per group) and weighed. The beagle dogs were fasted for 12 h before administration. The sample to be tested at a certain concentration was ground and suspended in 0.5% sodium carboxymethylcellulose solution, and II-1 (5 mg/kg), II-6 (5.13 mg/kg) or I-5-B (5.27 mg/kg) was administered intragastrically to the beagle dogs. Before administration and 0.5 h, 1 h, 2 h, 4 h, 6 h, 8 h, 10 h and 24 h after administration, 0.5 mL of blood was collected from the cephalic vein of forelimb separately, anticoagulated with sodium heparin, centrifuged to separate out the plasma, which was stored at −80° C. for determination.
50 μL of drug-containing plasma was taken, into which 50 μL of methanol and 100 μL of internal-standard acetaminophen methanol solution were added, and the mixture was vortexed for 1 min and centrifuged at 12000 rpm for 10 min at 4° C. The supernatant was taken and placed in an internal insert tube for quantitative analysis by LC-MS/MS (the method was the same as that in Example 7).

[4] = test system: hepatitis B; details: ducks; disclosed in CN103804417A; cited from earlier work

SMILES	half-life at 100 µM [1] [h]	half-life at 100 µM [2] [h]	Cmax [3] [ng/mL]	prodrug prototype present in plasma (in words) [3]	transformation into the active form (in words) [3]	antiviral effect on hepatitis B in vivo (in words) [4]	plasma concentration of the prodrug prototype (in words, versus I-5-B) ([3]; intragastric administration)
C=C1[C@H](CO[P@@](=O)(N[C@@H](C)C(=O)OC)Oc2ccc(Cl)cc2)[C@@H](O)C[C@@H]1n1cnc2c(=O)[nH]c(N)nc21 [II-3, 2-amino-1,9-dihydro-9-[(1S,3R,4S)-4-hydroxy-3-((S)-((S)-1-methoxycarbonylethylamino-(4-chloro-phenyl)oxy-phosphoryl)-oxymethyl)-2-methylenecyclopentyl]-6H-purin-6-one]	7.5	0.06	–	–	–	–	–
C=C1[C@H](CO[P@@](=O)(N[C@@H](C)C(=O)OC)Oc2ccc(Br)cc2)[C@@H](O)C[C@@H]1n1cnc2c(=O)[nH]c(N)nc21 [II-4, 2-amino-1,9-dihydro-9-[(1S,3R,4S)-4-hydroxy-3-((S)-((S)-1-methoxycarbonylethylamino-(4-bromo-phenyl)oxy-phosphoryl)-oxymethyl)-2-methylenecyclopentyl]-6H-purin-6-one]	6.2	0.06	–	–	–	–	–
C=C1[C@H](CO[P@@](=O)(N[C@@H](C)C(=O)OC)Oc2ccc(F)cc2)[C@@H](O)C[C@@H]1n1cnc2c(=O)[nH]c(N)nc21 [II-2, 2-amino-1,9-dihydro-9-[(1S,3R,4S)-4-hydroxy-3-((S)-((S)-1-methoxycarbonylethylamino-(4-fluoro-phenyl)oxy-phosphoryl)-oxymethyl)-2-methylenecyclopentyl]-6H-purin-6-one]	10.6	0.13	–	–	–	–	–
C=C1[C@H](CO[P@@](=O)(N[C@@H](C)C(=O)OC)Oc2ccc(C)cc2)[C@@H](O)C[C@@H]1n1cnc2c(=O)[nH]c(N)nc21 [II-6, 2-amino-1,9-dihydro-9-[(1S,3R,4S)-4-hydroxy-3-((S)-((S)-1-methoxycarbonylethylamino-(4-methyl-phenyl)oxy-phosphoryl)-oxymethyl)-2-methylenecyclopentyl]-6H-purin-6-one]	10.8	0.19	633	–	–	–	–
C=C1[C@H](CO[P@@](=O)(N[C@@H](C)C(=O)OC(C)C)Oc2ccccc2)[C@@H](O)C[C@@H]1n1cnc2c(=O)[nH]c(N)nc21 [I-5-B, 2-amino-1,9-dihydro-9-[(1S,3R,4S)-4-hydroxy-3-((S)-((S)-1-isopropoxycarbonylethylamino-phenoxy-phosphoryl)-oxymethyl)-2-methylenecyclopentyl]-6H-purin-6-one, reference compound]	> 24	0.4	864	high concentration	can not be completely transformed into the active form	good antiviral effect	–
C=C1[C@H](CO[P@@](=O)(N[C@@H](C)C(=O)OC)Oc2ccc(OC)cc2)[C@@H](O)C[C@@H]1n1cnc2c(=O)[nH]c(N)nc21 [II-5, 2-amino-1,9-dihydro-9-[(1S,3R,4S)-4-hydroxy-3-((S)-((S)-1-methoxycarbonylethylamino-(4-methoxy-phenyl)oxy-phosphoryl)-oxymethyl)-2-methylenecyclopentyl]-6H-purin-6-one]	4.9	0.03	–	–	–	–	–
C=C1[C@H](CO[P@@](=O)(N[C@@H](C)C(=O)OC)Oc2ccccc2)[C@@H](O)C[C@@H]1n1cnc2c(=O)[nH]c(N)nc21 [II-1, 2-amino-1,9-dihydro-9-[(1S,3R,4S)-4-hydroxy-3-((S)-((S)-1-methoxycarbonylethylamino-phenoxy-phosphoryl)-oxymethyl)-2-methylenecyclopentyl]-6H-purin-6-one]	15.3	0.27	331	–	–	–	significantly lower than that of the I-5-B
